Measurements published in US20160067208A1, “ADHESION PREVENTING AGENT” (FARNEX INCORPORATED, priority 2013, published 2016).

Experiments:
Format in all cases: physicochemical
[1] = Viscosity of the compound itself (Gemini II, Malvern); details: 25° C., at shear velocity of 92 1/s
Method: In addition, the amphipathic compound to be used for the adhesion preventing agent of the present invention has low viscosity in itself. Specifically, the amphipathic compound to be used for the adhesion preventing agent of the present invention has a viscosity of preferably 15.0 Pa·s or less, more preferably 11.0 Pa·s or less, and further preferably 6.0 Pa·s or less as measured at 25° C. in itself. The viscosity can be measured using, for example, a viscosity and viscoelasticity measuring apparatus (Gemini II, Malvern Instruments Ltd.) at 25° C.
The viscosity of each of the compounds described in the Examples 1-7 was measured using a viscosity/viscoelasticity measuring instrument (Gemini II, Malvern) at the temperature of 25° C.

[2] = Shear viscosity of liquid crystal gels; details: gel prepared by addition of water, 25° C.
Method: (§1) The viscosity was measured for the gels prepared by addition of water to the compounds synthesized in Examples 1, 4, and 5. Specifically, for the gel samples obtained by mixing homogeneously according to the same procedure as in Example 9, the shear viscosity was measured at a temperature of 25° C., using a viscosity and viscoelasticity measuring apparatus (Gemini II, Malvern Instruments Ltd.; cone plate φ25, cone angle 1°).
as §1, with “45” for “1, 4,”, “50, and C17 glycerin ester synthesized in Example 13.” for “5.”

[3] = SAXS analysis of compound/water system (liquid crystal formation); details: compound/water system gel, 50% by mass in water-excess condition, room temperature (25° C.)
From the text: Whether or not a liquid crystal structure has a cubic lattice may be determined by a small-angle X-ray scattering (SAXS) method, for the purpose of confirming liquid crystal formation. First, an amphipathic compound/water system sample with a predetermined concentration can be filled into an X-ray capillary tube made of quartz, for example, and the capillary tube is sealed with an oxy-fuel burner, and subjected to SAXS assay.
Mono-O-(5,9,13-trimethyltetradeca-4,8,12-trienoyl)glycerol synthesized in Example 1 and pure water were introduced into a mixing device at the concentration of 50% by mass of mono-O-(5,9,13-trimethyltetradeca-4,8,12-trienoyl)glycerol (in water-excess condition), and they were mixed at room temperature (25° C.) and left for 24 hours to obtain a homogeneous mixture. Then the separated water was removed. Thus, a sample of mono-O-(5,9,13-trimethyltetradeca-4,8,12-trienoyl)glycerol/water system was obtained as a white turbid to colorless transparent gel composition in appearance (it was referred to below as the gel sample).
Subsequently, the gel sample was analyzed by small-angle x-ray scattering (SAXS). The NANO-Viewer nano-scale X-ray structure analysis equipment (Rigaku) was used for SAXS analysis, which was performed by X-ray irradiation at room temperature (25° C.), 40 kV, 50 mA, wavelength λ=0.1542 nm (Cu-Kα).
Each of the compounds synthesized in Example 32, 33, 43, 45, 49, and 50 and water were homogeneously mixed in accordance with the same procedure as in Example 9 to obtain a sample of each compound/water system being a gel in appearance. SAXS analysis of these gel samples was performed in the same manner as in Example 9. […]

Viscosity [1] [Pa·s]	Structure (SMILES)	other results
10.6	CC(=CC(=O)OCC(CO)(CO)CO)CCCC(C)CCCC(C)CCCC(C)C (stereo not shown) [Example 55, mono-O-(3,7,11,15-tetramethylhexadec-2-enoyl)pentaerythritol]	
2.9	CC(C)=CCC/C(C)=C/CC/C(C)=C/CCC(C)=CCOCC(CO)(CO)CO (racemic) [Example 46, mono-O-(3,7,11,15-tetramethylhexadeca-2,6,10,14-tetraenyl)pentaerythritol]	
3.8	CC(C)=CCC/C(C)=C/CC/C(C)=C/CCC(C)=CC(=O)OCC(O)CO (racemic) [Example 41, mono-O-(3,7,11,15-tetramethylhexadeca-2,6,10,14-tetraenoyl)glycerol]	
0.21	CC(C)=CCC/C(C)=C/CC/C(C)=C/CCC(C)=CCCCOC(=O)C(O)CO (racemic) [Example 53, 5,9,13,17-tetramethyloctadeca-4,8,12,16-tetraenyl glycerate]	
0.16	CC(C)=CCCC(C)=CCCC(C)=CCCC(C)=CCCCOCC(O)CO (stereo not shown) [Example 48, mono-O-(5,9,13,17-tetramethyloctadeca-4,8,12,16-tetraenyl)glycerol]	
0.44	CC(=CCCCOCC(O)CO)CCCC(C)CCCC(C)CCCC(C)C (stereo not shown) [Example 58, mono-O-(5,9,13,17-tetramethyloctadec-4-enyl)glycerol]	
0.45	CC(=CC(=O)OCC(O)CO)CCCC(C)CCCC(C)C (stereo not shown) [Example 54, mono-O-(3,7,11-trimethyldodec-2-enoyl)glycerol]	
1.4	CC(C)=CCC/C(C)=C/CC/C(C)=C/CCC(C)=CCCCOCC(O)COCC(O)CO (stereo not shown) [Example 51, mono-O-(5,9,13,17-tetramethyloctadeca-4,8,12,16-tetraenyl)diglycerol]	
1.9	CC(C)=CCC/C(C)=C/CC/C(C)=C/CCC(C)=CCOCC(O)C(O)CO (stereo not shown) [Example 45, mono-O-(3,7,11,15-tetramethylhexadeca-2,6,10,14-tetraenyl)erythritol]	liquid crystal structure (SAXS peak value ratio) [3]: cubic liquid crystals that belong to the crystallographic space group Pn3m; Viscosity ([2]; shear velocity 10 1/s): 314 Pas · sec; Viscosity ([2]; shear velocity 105 1/s): 4.3 Pas · sec
0.98	CC(=CCCCOCC(CO)(CO)CO)CCCC(C)CCCC(C)C (stereo not shown) [Example 56, mono-O-(5,9,13-trimethyltetradec-4-enyl)pentaerythritol]	
0.23	CC(C)=CCC/C(C)=C/CC/C(C)=C/CCC(C)=CCOC(=O)C(O)CO (racemic) [Example 52, 3,7,11,15-tetramethylhexadeca-2,6,10,14-tetraenyl glycerate]	
14	CC(C)=CCC/C(C)=C/CC/C(C)=C/CCC(C)=CC(=O)OCC(CO)(CO)CO (racemic) [Example 43, mono-O-(3,7,11,15-tetramethylhexadeca-2,6,10,14-tetraenoyl)pentaerythritol]	liquid crystal structure (SAXS peak value ratio) [3]: reverse hexagonal liquid crystals
0.26	CC(C)=CCC/C(C)=C/CC/C(C)=C/CCC(C)=CCOCC(O)CO (racemic) [Example 44, mono-O-(3,7,11,15-tetramethylhexadeca-2,6,10,14-tetraenyl)glycerol]	

Second part, the molecule before the results:

Structure (SMILES)	Viscosity [1] [Pa·s]	other results
CC(=CCCC(=O)OCC(O)CO)CCCC(C)CCCC(C)C (stereo not shown) [Example 13, mono-O-(5,9,13-trimethyltetradec-4-enoyl)glycerol]	0.48	Viscosity ([2]; shear velocity 10 1/s): 1878 Pas · sec; Viscosity ([2]; shear velocity 105 1/s): 166 Pas · sec
CC(C)=CCC/C(C)=C/CCC(C)=CCOCC(O)CO (racemic) [Example 28, mono-O-(3,7,11-trimethyldodeca-2,6,10-trienyl)glycerol]	0.20	
CC(C)=CCC/C(C)=C/CC/C(C)=C/CCC(C)=CCCC(=O)OCC(CO)(CO)CO (racemic) [Example 6, mono-O-(5,9,13,17-tetramethyloctadeca-4,8,12,16-tetraenoyl)pentaerythritol]	3.3	liquid crystal structure (SAXS peak value ratio) [3]: cubic liquid crystal that belongs to the crystallographic space group Pn3m
CC(C)=CCC/C(C)=C/CC/C(C)=C/CCC(C)=CCCC(=O)OCC(O)COCC(O)CO (stereo not shown) [Example 7, mono-O-(5,9,13,17-tetramethyloctadeca-4,8,12,16-tetraenoyl)diglycerol]	2.6	
CC(C)=CCC/C(C)=C/CCC(C)=CCCC(=O)OCC(CO)(CO)CO (racemic) [Example 3, mono-O-(5,9,13-trimethyltetradeca-4,8,12-trienoyl)pentaerythritol]	2.5	
CC(C)=CCC/C(C)=C/CCC(C)=CCCCOCC(O)C(O)CO (stereo not shown) [Example 32, mono-O-(5,9,13-trimethyltetradeca-4,8,12-trienyl)erythritol]	1.2	liquid crystal structure (SAXS peak value ratio) [3]: cubic liquid crystals that belong to the crystallographic space group Pn3m
CC(C)=CCC/C(C)=C/CCC(C)=CCCCOC(=O)C(O)CO (stereo not shown) [Example 36, 5,9,13-trimethyltetradeca-4,8,12-trienyl glycerate]	0.16	
CC(C)=CCC/C(C)=C/CCC(C)=CCCCOCC(CO)(CO)CO (racemic) [Example 33, mono-O-(5,9,13-trimethyltetradeca-4,8,12-trienyl)pentaerythritol]	0.63	liquid crystal structure (SAXS peak value ratio) [3]: cubic liquid crystals that belong to the crystallographic space group Pn3m
CC(C)=CCC/C(C)=C/CC/C(C)=C/CCC(C)=CCCC(=O)OCC(O)CO (racemic) [Example 4, mono-O-(5,9,13,17-tetramethyloctadeca-4,8,12,16-tetraenoyl)glycerol]	0.37	liquid crystal structure (SAXS peak value ratio) [3]: reverse hexagonal liquid crystal; Viscosity ([2]; shear velocity 12 1/s): 39 Pas · sec; Viscosity ([2]; shear velocity 100.8 1/s): 1.4 Pas · sec
CC(C)=CCC/C(C)=C/CCC(C)=CCCCOCC(O)COCC(O)CO (stereo not shown) [Example 34, mono-O-(5,9,13-trimethyltetradeca-4,8,12-trienyl)diglycerol]	0.37	
CC(C)=CCC/C(C)=C/CCC(C)=CCCC(=O)OCC(O)C(O)CO (stereo not shown) [Example 2, mono-O-(5,9,13-trimethyltetradeca-4,8,12-trienoyl)erythritol]	4.7	
CC(C)=CCC/C(C)=C/CCC(C)=CCOCC(CO)(CO)CO (racemic) [Example 30, mono-O-(3,7,11-trimethyldodeca-2,6,10-trienyl)pentaerythritol]	1.6	
CC(C)=CCC/C(C)=C/CC/C(C)=C/CCC(C)=CCCCOCC(O)C(O)CO (stereo not shown) [Example 49, mono-O-(5,9,13,17-tetramethyloctadeca-4,8,12,16-tetraenyl)erythritol]		liquid crystal structure (SAXS peak value ratio) [3]: reverse hexagonal liquid crystals
CC(C)=CCC/C(C)=C/CCC(C)=CC(=O)OCC(O)CO (stereo not shown) [Example 27, mono-O-(3,7,11-trimethyldodeca-2,6,10-trienoyl)glycerol]	3.0	
CC(C)=CCC/C(C)=C/CCC(C)=CCCCOCC(O)CO (racemic) [Example 31, mono-O-(5,9,13-trimethyltetradeca-4,8,12-trienyl)glycerol]	0.23	
